# Experimental data from ChEMBL document CHEMBL1201862, “PubChem BioAssay data set” (2004).
#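 Interpolation was linear, between the two tested concentrations surrounding the appropriate level; five concentrations were tested over 48 hours in 96-well plates. GI50 is the concentration that inhibits growth by half.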 Active and inactive are the calls of the source. No stated cut-off is given here; in the data, active = GI50 up to about 1.1 µM and inactive = higher.
# Columns and labels:
# Experiment in all cases: DTP human tumour cell line panel, 48 h
# 786-0 = tested on: 786-0
# A498 = tested on: A498
# A549 = tested on: A549
# ACHN = tested on: ACHN
# CAKI-1 = tested on: CAKI-1
# CCRF-CEM = tested on: CCRF-CEM
# COLO 205 = tested on: COLO 205
# DU-145 = tested on: DU-145
# EKVX = tested on: EKVX
# HCC 2998 = tested on: HCC 2998
# HCT-116 = tested on: HCT-116
# HCT-15 = tested on: HCT-15
# HL-60 = tested on: HL-60
# HOP-62 = tested on: HOP-62
# HOP-92 = tested on: HOP-92
# HT-29 = tested on: HT-29
# Hs-578T = tested on: Hs-578T
# IGROV-1 = tested on: IGROV-1
# K562 = tested on: K562
# KM12 = tested on: KM12
# LOX IMVI = tested on: LOX IMVI
# M14 = tested on: M14
# MCF7 = tested on: MCF7
# MDA-MB-231 = tested on: MDA-MB-231
# MDA-MB-435 = tested on: MDA-MB-435
# MDA-N = tested on: MDA-N
# MOLT-4 = tested on: MOLT-4
# Malme-3M = tested on: Malme-3M
# NCI-H226 = tested on: NCI-H226
# NCI-H23 = tested on: NCI-H23
# NCI-H460 = tested on: NCI-H460
# NCI-H522 = tested on: NCI-H522
# NCI/ADR-RES = tested on: NCI/ADR-RES
# OVCAR-3 = tested on: OVCAR-3
# OVCAR-4 = tested on: OVCAR-4
# OVCAR-5 = tested on: OVCAR-5
# OVCAR-8 = tested on: OVCAR-8
# PC-3 = tested on: PC-3
# RPMI-8226 = tested on: RPMI-8226
# RXF 393 = tested on: RXF 393
# SF-268 = tested on: SF-268
# SF-295 = tested on: SF-295
# SF-539 = tested on: SF-539
# SK-MEL-28 = tested on: SK-MEL-28
# SK-MEL-2 = tested on: SK-MEL-2
# SK-MEL-5 = tested on: SK-MEL-5
# SN12C = tested on: SN12C
# SNB-19 = tested on: SNB-19
# SNB-75 = tested on: SNB-75
# SR = tested on: SR
# SW-620 = tested on: SW-620
# T47D = tested on: T47D
# TK-10 = tested on: TK-10
# U-251 = tested on: U-251
# UACC-257 = tested on: UACC-257
# UACC-62 = tested on: UACC-62
# UO-31 = tested on: UO-31
smiles,measurement,setting,value
O=c1[nH]c(=S)[nH]n1C(=S)n1[nH]c(=S)[nH]c1=O,GI50,786-0,> 100 µM (inactive)
same,GI50,A498,> 100 µM (inactive)
same,GI50,A549,> 100 µM (inactive)
same,GI50,ACHN,> 100 µM (inactive)
same,GI50,CAKI-1,> 100 µM (inactive)
same,GI50,CCRF-CEM,71.8 µM (inactive)
same,GI50,COLO 205,> 100 µM (inactive)
same,GI50,DU-145,> 100 µM (inactive)
same,GI50,EKVX,> 100 µM (inactive)
same,GI50,HCC 2998,> 100 µM (inactive)
same,GI50,HCT-116,> 100 µM (inactive)
same,GI50,HCT-15,> 100 µM
same,GI50,HL-60,45.2 µM (inactive)
same,GI50,HOP-62,> 100 µM (inactive)
same,GI50,HOP-92,> 100 µM (inactive)
same,GI50,HT-29,> 100 µM (inactive)
same,GI50,Hs-578T,> 100 µM (inactive)
same,GI50,IGROV-1,> 100 µM (inactive)
same,GI50,K562,> 100 µM (inactive)
same,GI50,KM12,> 100 µM (inactive)
same,GI50,LOX IMVI,60.4 µM (inactive)
same,GI50,M14,> 100 µM (inactive)
same,GI50,MCF7,2.94 µM (inactive)
same,GI50,MDA-MB-231,> 100 µM (inactive)
same,GI50,MDA-MB-435,> 100 µM (inactive)
same,GI50,MDA-N,> 100 µM (inactive)
same,GI50,MOLT-4,> 100 µM (inactive)
same,GI50,Malme-3M,36.7 µM (inactive)
same,GI50,NCI-H226,> 100 µM (inactive)
same,GI50,NCI-H23,> 100 µM (inactive)
same,GI50,NCI-H460,> 100 µM (inactive)
same,GI50,NCI-H522,> 100 µM (inactive)
same,GI50,NCI/ADR-RES,> 100 µM (inactive)
same,GI50,OVCAR-3,41.7 µM (inactive)
same,GI50,OVCAR-4,> 100 µM (inactive)
same,GI50,OVCAR-5,> 100 µM (inactive)
same,GI50,OVCAR-8,> 100 µM (inactive)
same,GI50,PC-3,> 100 µM (inactive)
same,GI50,RPMI-8226,89.1 µM (inactive)
same,GI50,RXF 393,> 100 µM (inactive)
same,GI50,SF-268,> 100 µM (inactive)
same,GI50,SF-295,> 100 µM (inactive)
same,GI50,SF-539,> 100 µM (inactive)
same,GI50,SK-MEL-28,> 100 µM (inactive)
same,GI50,SK-MEL-2,> 100 µM (inactive)
same,GI50,SK-MEL-5,> 100 µM (inactive)
same,GI50,SN12C,> 100 µM (inactive)
same,GI50,SNB-19,> 100 µM (inactive)
same,GI50,SNB-75,> 100 µM (inactive)
same,GI50,SR,41.4 µM (inactive)
same,GI50,SW-620,> 100 µM (inactive)
same,GI50,T47D,> 100 µM (inactive)
same,GI50,TK-10,> 100 µM (inactive)
same,GI50,U-251,> 100 µM (inactive)
same,GI50,UACC-257,> 100 µM (inactive)
same,GI50,UACC-62,> 100 µM (inactive)
same,GI50,UO-31,> 100 µM (inactive)
